Results as given in patent publication US9598434B2, “Benzazepine compound” (Astellas Pharma Inc., priority 2010, dated 2017).

First: CCNC(=O)N1CCCc2cc3c(c(C)c21)CCNCC3.O=C(O)C(=O)O
Second: CCOC(=O)N1CCCc2cc3c(c(Br)c21)CCNCC3.O=C(O)C(=O)O
The melting point of the first is lower: 170 to 171 °C for the first, 187 to 189 °C for the second.

First: O=C(O)CCC(=O)O.c1ccc(OCCN2CCOc3cc4c(cc32)CCNCC4)cc1
Second: CC(COC(=O)N1CCOc2cc3c(cc21)CCNCC3)c1ccccc1.O=C(O)CCC(=O)O (stereo not shown)
The melting point of the first is lower: 132 to 134 °C for the first, 177 to 179 °C for the second.

Compared with `O=C(O)/C=C/C(=O)O.c1nc(CN2CCOc3cc4c(cc32)CCNCC4)cs1`, `FC(F)(F)c1cccc(CN2CCOc3cc4c(cc32)CCNCC4)c1.O=C(O)/C=C/C(=O)O` is higher in melting point: 134 to 138 °C for the first, 141 to 146 °C for the second.

First: COCCN1CCOc2cc3c(c(-c4ccccc4)c21)CCNCC3.O=C(O)/C=C/C(=O)O
Second: COCCN1CCOc2cc3c(c(-c4ccccc4F)c21)CCNCC3.O=C(O)/C=C/C(=O)O
The melting point of the first is higher: 199 to 201 °C for the first, 179 to 182 °C for the second.

Compared with `CC(C)COC(=O)N1CCCc2cc3c(cc21)CCNCC3.Cl`, `CC(C)CN1C(=O)CCc2cc3c(cc21)CCNCC3.O=C(O)CCC(=O)O` is lower in melting point: 202 to 207 °C for the first, 142 to 144 °C for the second.

First: Cl.O=C1CCc2cc3c(cc2N1Cc1ccccc1)CCNCC3
Second: O=C(O)CCC(=O)O.O=C1COc2cc3c(cc2N1Cc1cccc(Cl)c1)CCNCC3
The melting point of the first is lower: 177 to 180 °C for the first, 192 to 194 °C for the second.

First: CCCN1C(=O)CCc2cc3c(c(-c4ccccc4)c21)CCNCC3.O=C(O)CCC(=O)O
Second: O=C(O)CCC(=O)O.c1ccc(CN2CCOc3cc4c(c(C5CC5)c32)CCNCC4)cc1
The melting point of the first is higher: 196 to 200 °C for the first, 107 to 110 °C for the second.

First: COc1cccc(CN2C(=O)COc3cc4c(cc32)CCNCC4)c1.O=C(O)CCC(=O)O
Second: COc1ccc(CN2C(=O)COc3cc4c(cc32)CCNCC4)cc1.O=C(O)CCC(=O)O
The melting point of the first is higher: 188 to 189 °C for the first, 173 to 176 °C for the second.

First: O=C(O)CCC(=O)O.O=C(OCCc1ccccc1Cl)N1CCCc2cc3c(cc21)CCNCC3
Second: O=C(O)CCC(=O)O.O=C(OCCc1ccccc1Cl)N1CCOc2cc3c(cc21)CCNCC3
The melting point of the first is higher: 187 to 188 °C for the first, 169 to 170 °C for the second.

First: CCN1CCOc2cc3c(c(C4CC4)c21)CCNCC3.O=C(O)/C=C/C(=O)O
Second: CCCN1CCOc2cc3c(c(C4CC4)c21)CCNCC3.O=C(O)/C=C/C(=O)O
The melting point of the first is higher: 174 to 177 °C for the first, 138 to 141 °C for the second.

First: O=C(O)/C=C/C(=O)O.OCCN1CCOc2cc3c(c(C4CC4)c21)CCNCC3
Second: C[C@H](F)CN1CCOc2cc3c(c(C4CC4)c21)CCNCC3.O=C(O)/C=C/C(=O)O
The melting point of the first is lower: 146 to 150 °C for the first, 171 to 173 °C for the second.

First: COCCN1CC(C)Oc2cc3c(c(C4CC4)c21)CCNCC3.O=C(O)/C=C/C(=O)O (stereo not shown)
Second: COC[C@H](CN1CCOc2cc3c(c(C4CC4)c21)CCNCC3)OC.O=C(O)/C=C/C(=O)O
The melting point of the first is lower: 102 to 103 °C for the first, 150 to 154 °C for the second.

Compared with `CN1CCC(C)(C)c2cc3c(cc21)CCNCC3.O=C(O)/C=C/C(=O)O`, `COCCN1CCC(C)(C)c2cc3c(cc21)CCNCC3.O=C(O)/C=C/C(=O)O` is lower in melting point: 197 to 200 °C for the first, 172 to 175 °C for the second.

Compared with `O=C(O)CCC(=O)O.O=C(OCCc1cccc(Cl)c1)N1CCOc2cc3c(cc21)CCNCC3`, `O=C(O)CCC(=O)O.O=C(OCCc1cccc(F)c1)N1CCOc2cc3c(cc21)CCNCC3` is higher in melting point: 160 to 162 °C for the first, 162 to 164 °C for the second.

First: COc1ccccc1CCOC(=O)N1CCOc2cc3c(cc21)CCNCC3.O=C(O)CCC(=O)O
Second: COc1cccc(CCOC(=O)N2CCOc3cc4c(cc32)CCNCC4)c1.O=C(O)CCC(=O)O
The melting point of the first is higher: 158 to 160 °C for the first, 134 to 136 °C for the second.

First: COCCN1CCOc2cc3c(c(C=C(C)C)c21)CCNCC3.O=C(O)/C=C/C(=O)O
Second: COCCCN1CCOc2cc3c(c(C)c21)CCNCC3.O=C(O)/C=C/C(=O)O
The melting point of the first is higher: 173 to 176 °C for the first, 160 to 163 °C for the second.

First: COCCN1C(=O)C(C)(C)Oc2cc3c(cc21)CCNCC3.O=C(O)/C=C/C(=O)O
Second: COCCN1C(=O)CCc2cc3c(cc21)CCNCC3.O=C(O)/C=C/C(=O)O
The melting point of the first is higher: 175 to 176 °C for the first, 164 to 166 °C for the second.

Compared with `Cl.FC(F)(F)CN1CCOc2c1cc1c(c2Br)CCNCC1`, `COCC(F)(F)CN1CCOc2cc3c(cc21)CCNCC3.Cl` is lower in melting point: 216 to 221 °C for the first, 172 to 173 °C for the second.

Compared with `COCCN1c2cc3c(cc2CCC1(C)C)CCNCC3.O=C(O)/C=C/C(=O)O`, `COCCN1c2cc3c(cc2OC[C@@H]1C)CCNCC3.O=C(O)/C=C/C(=O)O` is lower in melting point: 156 to 158 °C for the first, 131 to 134 °C for the second.

Compared with `CC(Cc1ccccc1)OC(=O)N1CCOc2cc3c(cc21)CCNCC3.O=C(O)CCC(=O)O` (stereo not shown), `O=C(O)CCC(=O)O.O=C(OCCc1ccccc1)N1CCOc2c1cc1c(c2Br)CCNCC1` is higher in melting point: 85 to 87 °C for the first, 142 to 143 °C for the second.

Compared with `O=C(O)CCC(=O)O.O=C(OCCc1ccccc1)N1CCOc2c1cc1c(c2C2CC2)CCNCC1`, `O=C(O)CCC(=O)O.O=C(OCCc1ccccc1)N1CCOc2c1cc1c(c2-c2ccccc2)CCNCC1` is higher in melting point: 142 to 144 °C for the first, 169 to 171 °C for the second.

First: COCC(F)(F)CN1CCOc2cc3c(c(C4CC4)c21)CCNCC3.O=C(O)/C=C/C(=O)O
Second: CO[C@@H](C)CN1CCOc2cc3c(c(C4CC4)c21)CCNCC3.O=C(O)/C=C/C(=O)O
The melting point of the first is higher: 163 to 165 °C for the first, 135 to 138 °C for the second.

Compared with `CCCc1c2c(cc3c1OCCN3C(=O)OCCc1ccccc1)CCNCC2.O=C(O)/C=C/C(=O)O`, `CCOCCN1CCOc2cc3c(c(CC)c21)CCNCC3.O=C(O)/C=C/C(=O)O` is higher in melting point: 134 to 136 °C for the first, 179 to 181 °C for the second.

First: CCCC1CN(C)c2cc3c(cc2O1)CCNCC3.O=C(O)/C=C/C(=O)O (stereo not shown)
Second: Cc1c2c(cc3c1N(CCCF)CCO3)CCNCC2.O=C(O)/C=C/C(=O)O
The melting point of the first is lower: 152 to 153 °C for the first, 187 to 190 °C for the second.

Compared with `O=C(O)/C=C/C(=O)O.c1c2c(c(C3CC3)c3c1OCCN3CC1CCOC1)CCNCC2` (stereo not shown), `O=C(O)/C=C/C(=O)O.c1cc(CN2CCOc3cc4c(c(C5CC5)c32)CCNCC4)c2c(c1)OCCO2` is higher in melting point: 117 to 118 °C for the first, 184 to 187 °C for the second.

Compared with `Cc1c2c(cc3c1N(C[C@H](C)F)CCO3)CCNCC2.O=C(O)/C=C/C(=O)O`, `Fc1cccc(CN2CCOc3cc4c(c(C5CC5)c32)CCNCC4)c1F.O=C(O)/C=C/C(=O)O` is lower in melting point: 165 to 168 °C for the first, 157 to 159 °C for the second.

Compared with `Fc1cccc(CN2CCOc3cc4c(c(C5CC5)c32)CCNCC4)c1.O=C(O)CCC(=O)O`, `Fc1c(Cl)cccc1CN1CCOc2cc3c(c(C4CC4)c21)CCNCC3.O=C(O)/C=C/C(=O)O` is higher in melting point: 102 to 105 °C for the first, 181 to 184 °C for the second.

Compared with `FC1(F)Oc2ccc(CN3CCOc4cc5c(c(C6CC6)c43)CCNCC5)cc2O1.O=C(O)/C=C/C(=O)O`, `COc1ccc(Cl)cc1CN1CCOc2cc3c(c(C4CC4)c21)CCNCC3.O=C(O)/C=C/C(=O)O` is higher in melting point: 161 to 164 °C for the first, 193 to 196 °C for the second.

First: CC1(C)CC(=O)Nc2cc3c(cc21)CCNCC3.Cl
Second: COCC(CN1CCOc2cc3c(c(C4CC4)c21)CCNCC3)Oc1ccc(F)cc1.O=C(O)/C=C/C(=O)O (stereo not shown)
The melting point of the first is higher: 270 to 272 °C for the first, 138 to 140 °C for the second.

Compared with `COc1cc(OCCN2CCOc3cc4c(c(C5CC5)c32)CCNCC4)c(F)cc1C#N.O=C(O)/C=C/C(=O)O`, `CCOCc1cc(F)c(OCCN2CCOc3cc4c(c(C5CC5)c32)CCNCC4)c(F)c1.O=C(O)/C=C/C(=O)O` is higher in melting point: 125 to 128 °C for the first, 138 to 139 °C for the second.

With `COCC(CN1CCOc2cc3c(c(C4CC4)c21)CCNCC3)Oc1ccccc1F.O=C(O)/C=C/C(=O)O` (stereo not shown) the melting point was 132 to 133 °C.
